Measured values: ChEMBL document CHEMBL3044541, “Control of crown rot-causing fungal pathogens of banana by inorganic salts and a surfactant” (Crop Prot, 2007)
Calls of active or inactive are those of the source. The calls are words filed in the database; no cut-off is given here.

Tests used:
Thielaviopsis paradoxa [1] = test: Growth inhibition of Ceratocystis paradoxa assessed as inhibition of mycelial growth up to 160 g/l incubated for 15 min followed by compound washout measured after 7 days in absence of surfactant APSA 80; assay type: functional, organism-based
Thielaviopsis paradoxa [2] = test: Antifungal activity against Ceratocystis paradoxa assessed as inhibition of conidium germination at 5 g/l incubated for 15 min followed by compound washout measured after 7 days by microscopic analysis in presence of surfactant APSA 80; assay type: functional, organism-based
Lasiodiplodia theobromae [3] = test: Antifungal activity against Lasiodiplodia theobromae assessed as inhibition of conidium germination at 5 g/l incubated for 15 min followed by compound washout measured after 2 days by microscopic analysis in absence of surfactant APSA 80; assay type: functional, organism-based
Fusarium verticillioides [4] = test: Antifungal activity against Fusarium verticillioides assessed as inhibition of conidium germination at 5 g/l incubated for 15 min followed by compound washout measured after 2 days by microscopic analysis in absence of surfactant APSA 80; assay type: functional, organism-based
Lasiodiplodia theobromae [5] = test: Antifungal activity against Lasiodiplodia theobromae assessed as inhibition of conidium germination at 5 g/l incubated for 15 min followed by compound washout measured after 7 days by microscopic analysis in presence of surfactant APSA 80; assay type: functional, organism-based
Colletotrichum musae [6] = test: Growth inhibition of Colletotrichum musae assessed as concentration required for inhibition of mycelial growth incubated for 15 min followed by compound washout measured after 7 days in presence of surfactant APSA 80; assay type: functional
Colletotrichum musae [7] = test: Antifungal activity against Colletotrichum musae assessed as inhibition of conidium germination at 5 g/l incubated for 15 min followed by compound washout measured after 2 days by microscopic analysis in absence of surfactant APSA 80; assay type: functional, organism-based
Colletotrichum musae [8] = test: Antifungal activity against Colletotrichum musae assessed as inhibition of conidium germination at 5 g/l incubated for 15 min followed by compound washout measured after 7 days by microscopic analysis in presence of surfactant APSA 80; assay type: functional, organism-based
Lasiodiplodia theobromae [9] = test: Growth inhibition of Lasiodiplodia theobromae assessed as inhibition of mycelial growth up to 160 g/l incubated for 15 min followed by compound washout measured after 7 days in absence of surfactant APSA 80; assay type: functional, organism-based
Lasiodiplodia theobromae [10] = test: Growth inhibition of Lasiodiplodia theobromae assessed as concentration required for inhibition of mycelial growth incubated for 15 min followed by compound washout measured after 7 days in presence of surfactant APSA 80; assay type: functional
Thielaviopsis paradoxa [11] = test: Antifungal activity against Ceratocystis paradoxa assessed as inhibition of conidium germination at 5 g/l incubated for 15 min followed by compound washout measured after 2 days by microscopic analysis in absence of surfactant APSA 80; assay type: functional, organism-based
Musa acuminata AAA Group [12] = test: Phytotoxicity against Musa acuminata AAA Group (Cavendish banana) assessed as skin burn incubated for 15 min followed by compound washout measured after 1 to 3 weeks in presence of surfactant APSA 80 relative to control; assay type: organism-based; details: in vivo
Musa acuminata AAA Group [13] = test: Phytotoxicity against Musa acuminata AAA Group (Cavendish banana) assessed as discoloration incubated for 15 min followed by compound washout measured after 1 to 3 weeks in presence of surfactant APSA 80 relative to control; assay type: organism-based; details: in vivo
Fusarium verticillioides [14] = test: Growth inhibition of Fusarium verticillioides assessed as concentration required for inhibition of mycelial growth incubated for 15 min followed by compound washout measured after 7 days in absence of surfactant APSA 80; assay type: functional
Lasiodiplodia theobromae [15] = test: Growth inhibition of Lasiodiplodia theobromae assessed as concentration required for inhibition of mycelial growth incubated for 15 min followed by compound washout measured after 7 days in absence of surfactant APSA 80; assay type: functional
Colletotrichum musae [16] = test: Growth inhibition of Colletotrichum musae assessed as concentration required for inhibition of mycelial growth incubated for 15 min followed by compound washout measured after 7 days in absence of surfactant APSA 80; assay type: functional
Lasiodiplodia theobromae [17] = test: Growth inhibition of Lasiodiplodia theobromae assessed as inhibition of mycelial growth up to 160 g/l incubated for 15 min followed by compound washout measured after 7 days in presence of surfactant APSA 80; assay type: functional, organism-based
Lasiodiplodia theobromae [18] = test: Antifungal activity against Lasiodiplodia theobromae assessed as inhibition of conidium germination at 6 g/l incubated for 15 min followed by compound washout measured after 2 days by microscopic analysis in absence of surfactant APSA 80; assay type: functional, organism-based
Thielaviopsis paradoxa [19] = test: Antifungal activity against Ceratocystis paradoxa assessed as inhibition of conidium germination at 6 g/l incubated for 15 min followed by compound washout measured after 2 days by microscopic analysis in absence of surfactant APSA 80; assay type: functional, organism-based
Fusarium verticillioides [20] = test: Antifungal activity against Fusarium verticillioides assessed as inhibition of conidium germination at 6 g/l incubated for 15 min followed by compound washout measured after 7 days by microscopic analysis in presence of surfactant APSA 80; assay type: functional, organism-based
Colletotrichum musae [21] = test: Growth inhibition of Colletotrichum musae assessed as inhibition of mycelial growth up to 160 g/l incubated for 15 min followed by compound washout measured after 7 days in presence of surfactant APSA 80; assay type: functional, organism-based
Colletotrichum musae [22] = test: Antifungal activity against Colletotrichum musae assessed as inhibition of conidium germination at 6 g/l incubated for 15 min followed by compound washout measured after 7 days by microscopic analysis in presence of surfactant APSA 80; assay type: functional, organism-based
Lasiodiplodia theobromae [23] = test: Antifungal activity against Lasiodiplodia theobromae assessed as inhibition of conidium germination at 6 g/l incubated for 15 min followed by compound washout measured after 7 days by microscopic analysis in presence of surfactant APSA 80; assay type: functional, organism-based
Thielaviopsis paradoxa [24] = test: Antifungal activity against Ceratocystis paradoxa assessed as inhibition of conidium germination at 6 g/l incubated for 15 min followed by compound washout measured after 7 days by microscopic analysis in presence of surfactant APSA 80; assay type: functional, organism-based
Fusarium verticillioides [25] = test: Antifungal activity against Fusarium verticillioides assessed as inhibition of conidium germination at 6 g/l incubated for 15 min followed by compound washout measured after 2 days by microscopic analysis in absence of surfactant APSA 80; assay type: functional, organism-based
Colletotrichum musae [26] = test: Antifungal activity against Colletotrichum musae assessed as inhibition of conidium germination at 6 g/l incubated for 15 min followed by compound washout measured after 2 days by microscopic analysis in absence of surfactant APSA 80; assay type: functional, organism-based

SMILES | Activity (Thielaviopsis paradoxa [1]) | inhibition (Thielaviopsis paradoxa [2]) | inhibition (Lasiodiplodia theobromae [3]) | inhibition (Fusarium verticillioides [4]) | inhibition (Lasiodiplodia theobromae [5]) | inhibition (Colletotrichum musae [7]) | inhibition (Colletotrichum musae [8]) | Activity (Lasiodiplodia theobromae [9]) | Activity (Lasiodiplodia theobromae [10]) | inhibition (Thielaviopsis paradoxa [11]) | Activity (Musa acuminata AAA Group [12]) | Activity (Musa acuminata AAA Group [13]) | also measured
[Ca+2].[Cl-].[Cl-] [CALCIUM CHLORIDE] | inactive | Active | Active | Active | Active | Active | Active | inactive | 100 g/L | Active |  |  | Activity (Colletotrichum musae [6]): 140 g/L
[Na+].[O-]Cl [SODIUM HYPOCHLORITE] |  | Active | Active | Active | Active | Active | Active |  | 20 g/L | Active | Toxic | Toxic | Activity (Fusarium verticillioides [14]): 70 g/L; Activity (Lasiodiplodia theobromae [15]): 20 g/L; Activity (Colletotrichum musae [16]): 50 g/L
[Cl-].[Na+] [SODIUM CHLORIDE] | inactive |  |  |  |  |  |  | inactive |  |  | Toxic | Toxic | Activity (Lasiodiplodia theobromae [17]): inactive; inhibition (Lasiodiplodia theobromae [18]): Active; inhibition (Thielaviopsis paradoxa [19]): Active; inhibition (Fusarium verticillioides [20]): Active; Activity (Colletotrichum musae [21]): inactive; inhibition (Colletotrichum musae [22]): Active; inhibition (Lasiodiplodia theobromae [23]): Active; inhibition (Thielaviopsis paradoxa [24]): Active; inhibition (Fusarium verticillioides [25]): Active; inhibition (Colletotrichum musae [26]): Active
